Experiments:
Assay in all cases: relative viability (nuclei count vs DMSO), 5 days (fraction); higher = more cells survive
A-427 = system: A-427
Summary of the method: (§1)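 Relative viability was taken as the ratio of nuclei in treated wells to nuclei in vehicle wells. Lung cancer cell lines in 1536-well plates received compounds by pin tool one day after seeding, either one drug alone or a fixed anchor-drug dose plus five library-drug doses (not always all listed) in √10 steps. Nuclei were counted on 4× images after 5 days of treatment, and values are medians of duplicate plates.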

NCI-H460 = system: NCI-H460
Summary of the method: as §1

NCI-H2009 = system: NCI-H2009
Summary of the method: as §1

NCI-H1792 = system: NCI-H1792
Summary of the method: as §1

NCI-H1395 = system: NCI-H1395
Summary of the method: as §1

NCI-H2228 = system: NCI-H2228
Summary of the method: as §1

CAL-12T = system: CAL-12T
Summary of the method: as §1

HARA = system: HARA
Summary of the method: as §1

COR-L 105 = system: COR-L 105
Summary of the method: as §1

NCI-H23 = system: NCI-H23
Summary of the method: as §1

NCI-H1437 = system: NCI-H1437
Summary of the method: as §1

LCLC-103H = system: LCLC-103H
Summary of the method: as §1

HOP-62 = system: HOP-62
Summary of the method: as §1

NCI-H1915 = system: NCI-H1915
Summary of the method: as §1

NCI-H727 = system: NCI-H727
Summary of the method: as §1

EMC-BAC-2 = system: EMC-BAC-2
Summary of the method: as §1

HCC-366 = system: HCC-366
Summary of the method: as §1

HCC-827 = system: HCC-827
Summary of the method: as §1

NCI-H1755 = system: NCI-H1755
Summary of the method: as §1

SK-LU-1 = system: SK-LU-1
Summary of the method: as §1

SW 1573 = system: SW 1573
Summary of the method: as §1

O=c1cc(-c2cccc3c2Sc2ccccc2S3)oc(N2CCOCC2)c1 + C[C@]1(O)C[C@@H](c2nc(-c3ccc4ccc(-c5ccccc5)nc4c3)c3c(N)nccn32)C1 [Linsitinib] (partner 1 µM)
relative viability (A-427; first compound 0.08 µM): 1.09
relative viability (A-427; first compound 0.253 µM): 0.959
relative viability (A-427; first compound 0.8 µM): 1.19
relative viability (A-427; first compound 2.53 µM): 1.07
relative viability (A-427; first compound 8 µM): 1.08
relative viability (NCI-H460; first compound 0.08 µM): 0.991
relative viability (NCI-H460; first compound 0.253 µM): 0.997
relative viability (NCI-H460; first compound 0.8 µM): 1.08
relative viability (NCI-H460; first compound 2.53 µM): 0.796
relative viability (NCI-H460; first compound 8 µM): 0.791
relative viability (NCI-H2009; first compound 0.08 µM): 1.17
relative viability (NCI-H2009; first compound 0.253 µM): 1.22
relative viability (NCI-H2009; first compound 0.8 µM): 1.19
relative viability (NCI-H2009; first compound 2.53 µM): 1.12
relative viability (NCI-H2009; first compound 8 µM): 1.11
relative viability (NCI-H1792; first compound 0.253 µM): 0.61
relative viability (NCI-H1792; first compound 0.8 µM): 0.502
relative viability (NCI-H1792; first compound 2.53 µM): 0.535
relative viability (NCI-H1792; first compound 8 µM): 0.516
relative viability (NCI-H1395; first compound 0.08 µM): 1.25
relative viability (NCI-H1395; first compound 0.253 µM): 1.06
relative viability (NCI-H1395; first compound 0.8 µM): 1.26
relative viability (NCI-H1395; first compound 2.53 µM): 0.941
relative viability (NCI-H1395; first compound 8 µM): 1.07
relative viability (NCI-H2228; first compound 0.08 µM): 0.545
relative viability (NCI-H2228; first compound 0.253 µM): 0.588
relative viability (NCI-H2228; first compound 0.8 µM): 0.826
relative viability (NCI-H2228; first compound 2.53 µM): 0.592
relative viability (NCI-H2228; first compound 8 µM): 0.63
relative viability (CAL-12T; first compound 0.08 µM): 0.73
relative viability (CAL-12T; first compound 0.253 µM): 0.861
relative viability (CAL-12T; first compound 0.8 µM): 0.899
relative viability (CAL-12T; first compound 2.53 µM): 0.77
relative viability (CAL-12T; first compound 8 µM): 0.503
relative viability (HARA; first compound 0.08 µM): 1.01
relative viability (HARA; first compound 0.253 µM): 1.2
relative viability (HARA; first compound 0.8 µM): 1.08
relative viability (HARA; first compound 2.53 µM): 0.948
relative viability (HARA; first compound 8 µM): 0.743
relative viability (COR-L 105; first compound 0.08 µM): 0.771
relative viability (COR-L 105; first compound 0.253 µM): 1.11
relative viability (COR-L 105; first compound 0.8 µM): 0.823
relative viability (COR-L 105; first compound 2.53 µM): 0.958
relative viability (COR-L 105; first compound 8 µM): 1.07
relative viability (NCI-H23; first compound 0.08 µM): 0.596
relative viability (NCI-H23; first compound 0.253 µM): 0.738
relative viability (NCI-H23; first compound 0.8 µM): 0.578
relative viability (NCI-H23; first compound 2.53 µM): 0.684
relative viability (NCI-H23; first compound 8 µM): 0.574
relative viability (NCI-H1437; first compound 0.08 µM): 1.12
relative viability (NCI-H1437; first compound 0.253 µM): 1.49
relative viability (NCI-H1437; first compound 0.8 µM): 1.15
relative viability (NCI-H1437; first compound 2.53 µM): 0.997
relative viability (NCI-H1437; first compound 8 µM): 1.12
relative viability (LCLC-103H; first compound 0.08 µM): 1.06
relative viability (LCLC-103H; first compound 0.253 µM): 1.1
relative viability (LCLC-103H; first compound 0.8 µM): 1.08
relative viability (LCLC-103H; first compound 2.53 µM): 1.06
relative viability (LCLC-103H; first compound 8 µM): 1.06
relative viability (HOP-62; first compound 0.08 µM): 1.04
relative viability (HOP-62; first compound 0.253 µM): 1.01
relative viability (HOP-62; first compound 0.8 µM): 1.01
relative viability (HOP-62; first compound 2.53 µM): 0.789
relative viability (HOP-62; first compound 8 µM): 0.917
relative viability (NCI-H1915; first compound 0.08 µM): 1.06
relative viability (NCI-H1915; first compound 0.253 µM): 1.1
relative viability (NCI-H1915; first compound 0.8 µM): 1.07
relative viability (NCI-H1915; first compound 2.53 µM): 1.05
relative viability (NCI-H1915; first compound 8 µM): 1.12
relative viability (NCI-H727; first compound 0.253 µM): 0.284
relative viability (NCI-H727; first compound 2.53 µM): 0.314
relative viability (NCI-H727; first compound 8 µM): 0.304
relative viability (EMC-BAC-2; first compound 0.08 µM): 0.828
relative viability (EMC-BAC-2; first compound 0.253 µM): 0.9
relative viability (EMC-BAC-2; first compound 0.8 µM): 0.842
relative viability (EMC-BAC-2; first compound 2.53 µM): 0.817
relative viability (EMC-BAC-2; first compound 8 µM): 0.878
relative viability (HCC-366; first compound 0.08 µM): 0.605
relative viability (HCC-366; first compound 0.253 µM): 1.07
relative viability (HCC-366; first compound 0.8 µM): 0.711
relative viability (HCC-366; first compound 2.53 µM): 0.744
relative viability (HCC-366; first compound 8 µM): 0.573
relative viability (HCC-827; first compound 0.08 µM): 0.892
relative viability (HCC-827; first compound 0.253 µM): 0.979
relative viability (HCC-827; first compound 0.8 µM): 0.925
relative viability (HCC-827; first compound 2.53 µM): 0.848
relative viability (HCC-827; first compound 8 µM): 0.915
relative viability (NCI-H1755; first compound 0.08 µM): 1.03
relative viability (NCI-H1755; first compound 0.253 µM): 1.1
relative viability (NCI-H1755; first compound 0.8 µM): 0.978
relative viability (NCI-H1755; first compound 2.53 µM): 1.02
relative viability (NCI-H1755; first compound 8 µM): 0.936
relative viability (SK-LU-1; first compound 0.08 µM): 1.14
relative viability (SK-LU-1; first compound 0.253 µM): 1.22
relative viability (SK-LU-1; first compound 0.8 µM): 1.27
relative viability (SK-LU-1; first compound 2.53 µM): 0.952
relative viability (SK-LU-1; first compound 8 µM): 0.918
relative viability (SW 1573; first compound 0.08 µM): 0.855
relative viability (SW 1573; first compound 0.253 µM): 0.819
relative viability (SW 1573; first compound 0.8 µM): 0.685
relative viability (SW 1573; first compound 2.53 µM): 0.809
relative viability (SW 1573; first compound 8 µM): 0.811
